The text below walks through data of publication PMC12040169 (PLOS Biology, 2025).

The first series can be described thus: in vitro. The conditions noted are these: human, hela cells, % viability.
Broadly, the viability is a read-out of living cells in per cent, often relative to untreated cells. In the case of `Cc1cc2nc(COC(=O)N3CCOCC3)[nH]c2cc1C` [CBK200144], the viability at 28.5 h, 10 µM came out at 107%.
On the same count and under the same terms, as for `Cc1noc(C)c1S(=O)(=O)NCc1cc(C)n(C)n1` [CBK062155], the figure is 103%; as for `CC(C)N1CCN(Cc2c(C(F)(F)F)[nH]c3ncccc23)CC1` [CBK285354], 88.3%.
For the molecule `COc1ccccc1Nc1nc(N)nc(CSc2nccn2C)n1` [CBK266710], the viability at 28.5 h, 10 µM amounted to 95%.
On the same count and under the same terms, to `Cc1ccc(OCCn2c(=N)n(CCN3CCOCC3)c3ccccc32)cc1` [CBK269085B] belongs 97.9%; to `COc1ccc(CCNC(=O)CN2CCCC2Cn2cccn2)cc1` (centres unmarked) [CBK306147], 92.1%.
Consider `CC(C)c1ccc(NS(=O)(=O)c2cc3c(N4CCNCC4)nccc3s2)cc1` [CBK038104C], for which the viability at 28.5 h, 10 µM is 91.4%.
Consider `CCc1nc2ccc(C(=O)N3CCN(C(=O)c4ccco4)CC3)cn2c1N(C)Cc1ccncc1` [CBK145635], for which the viability at 28.5 h, 10 µM is 94.5%.
As to `COc1ccccc1[C@@H]1C[C@H](OC(=O)c2ccc(F)cc2)C(=O)N1C` [CBK283598], the viability at 28.5 h, 10 µM is 92%.
Take `Cc1ccccc1C(NC(=O)C1CCN(C(=O)OCc2ccccc2)CC1)c1ccc(=O)[nH]c1` (centres unmarked) [CBK083200]: the viability at 28.5 h, 10 µM stood at 85.7%.
Turning to `CC(=O)N(C)c1ncc(Br)cc1C(=O)NCCc1ccccc1` [CBK076543], the viability at 28.5 h, 10 µM was determined as 93.8%.
For the molecule `NC1CCC(Nc2cncc(-c3ccc(F)c(Cl)c3)n2)CC1` (centres unmarked) [CBK037893], the viability at 28.5 h, 10 µM stood at 99.6%.
`CCCc1ccc(S(=O)(=O)n2ccn(-c3ccc4c(c3)OCO4)c2=O)cc1` [CBK106634]: the viability at 28.5 h, 10 µM amounted to 94.6%.
With `O=C1CC(c2ccc(Br)cc2)Nc2ccc3ccccc3c21` (centres unmarked) [CBK094798], the viability at 28.5 h, 10 µM was 93.4%.
On the same count and under the same terms, as for `COc1ccc(Cl)cc1N1CCN(CCCCC2NC(=O)NC2=O)CC1` (centres unmarked) [CBK126448], the figure is 89.4%; as for `CN(C)c1ccc(C(=O)N2CC(=O)Nc3ccccc32)cc1` [CBK017839], 89.2%; as for `CSc1ccccc1CNC(=O)c1ccc(C)nc1N1CCOCC1` [CBK106224], 91.9%.
As to `C=CCN1C(=O)C2(CC(=O)N(CCC3CCCCC3)C2=O)c2ccccc21` (centres unmarked) [CBK075160], the viability at 28.5 h, 10 µM was 107%.
Turning to `Cc1ncccc1C(=O)N1CCC(c2cc3ccccc3cn2)CC1` [CBK284854], the viability at 28.5 h, 10 µM was found to be 113%.
Consider `Cc1ccc(C(=O)CSc2nc(O)c3nc[nH]c3n2)cc1` [CBK300520], for which the viability at 28.5 h, 10 µM was 119%.
Consider `COc1cncc(-c2cc(N3CCN(C(=O)c4ccco4)CC3)ncn2)c1` [CBK091121], for which the viability at 28.5 h, 10 µM is 97.4%.
Regarding `COCCNc1nc(-c2cc(OC)c(OC)c(OC)c2)cnc1N` [CBK063559], the viability at 28.5 h, 10 µM was found to be 112%.
For `OCc1ncccc1OCCOC1CCCCO1` (centres unmarked) [CBK045702], the viability at 28.5 h, 10 µM came out at 97.5%.
For the molecule `O=C(CC1CCCCC1)N1CCCC1c1n[nH]cc1-c1ccncc1` (centres unmarked) [CBK283429], the viability at 28.5 h, 10 µM stood at 90.4%.
For the molecule `c1cncc(Nc2cccc(-c3cnc4ccccc4c3)n2)c1` [CBK037638], the viability at 28.5 h, 10 µM is 98.8%.
`OCCN1CCN(C(S)=NC2CCCC2)CC1` [CBK265886]: the viability at 28.5 h, 10 µM turned out to be 91.6%.
On the same count and under the same terms, to `Nc1nc(OCCOc2ccccc2)cnc1-c1ccsc1` [CBK145163] belongs 109%; to `CCCNC(=O)COc1ccc(CC)cc1` [CBK058199], 93.9%.
For `O=C(c1nc2ccccc2s1)C1CCN(C(=O)CCc2ccc(-c3ccccc3)o2)CC1` [CBK286170], the viability at 28.5 h, 10 µM was 86.8%.
In the case of `Cc1cc(C)n(C(=O)c2ccc([N+](=O)[O-])cc2N)n1` [CBK266491], the viability at 28.5 h, 10 µM is 102%.
Same read-out and setting: to `Cc1ccc(Cl)cc1NC(=O)OCCN(C)C` [CBK016906] belongs 98.3%; to `COc1ccc(-c2cccc(N3CCN(CCN4CCCC4)CC3)n2)cc1OC` [CBK037680], 84.9%.
For the molecule `CC(C)(C)c1ccc(S(=O)(=O)N2CCSC2)cc1` [CBK095672], the viability at 28.5 h, 10 µM was 101%.
`O=C(CCn1c(C(F)(F)F)cc2cccnc21)NCc1cccnc1` [CBK284865]: the viability at 28.5 h, 10 µM was determined as 106%.
Consider `CCCC/C=C/c1nccnc1NCc1ccco1` [CBK037116], for which the viability at 28.5 h, 10 µM stood at 105%.
In the case of `O=C(c1cc(CC2(NCc3ccc(F)cc3)COC2)no1)N1CCCCC1` [CBK289657], the viability at 28.5 h, 10 µM was found to be 92.4%.
In the case of `Nc1nonc1-c1nc2ccccc2o1` [CBK009829], the viability at 28.5 h, 10 µM was determined as 91%.
Same read-out and setting: to `CC(C)NC(=O)c1sc2ccccc2c1C1CN(C(=O)CC2CCCCC2)CCO1` (centres unmarked) [CBK285869] belongs 91.5%; to `CC(=O)N1C2CCC1CC(O)(Cn1ccc3ccnc(Cl)c31)C2` (centres unmarked) [CBK284868], 106%.
In the case of `COc1cc(/C=C2\SC(=S)N(c3cccc(C(=O)O)c3)C2=O)cc([N+](=O)[O-])c1O` [CBK265281], the viability at 28.5 h, 10 µM turned out to be 96.2%.
Take `CCC(NC(=O)c1csc2c1CCCC2)c1ccccc1` (centres unmarked) [CBK059006]: the viability at 28.5 h, 10 µM turned out to be 108%.
In the case of `O=C(Nc1ccc2[nH]c(=O)[nH]c2c1)c1ccc2[nH]ccc2c1` [CBK149083], the viability at 28.5 h, 10 µM is 97.5%.
The same measure, in the same setting: as for `COc1cc(NC(=O)CC2(C(=O)O)CCCCC2)ccc1N1CCCC1=O` [CBK296761], the figure is 109%; as for `Nc1ncnc(NCCc2ccc(Cl)cc2)c1[N+](=O)[O-]` [CBK267351], 88.3%; as for `O=C(O)CC1CCC2(CC1)Cc1ccccc1C2` [CBK012397], 89.8%.
Same read-out and setting: as for `O=C(NCCc1nc2cccnc2n1-c1ccccc1)c1ccncc1` [CBK288599], the figure is 90.7%; as for `Cc1nc(=O)c(-c2ccccc2)c(C)n1-c1cccc(C(=O)O)c1` [CBK286965], 94.3%.
On to `COC12CCCC(C(=O)O)(CCC1)C2` [CBK038238], for which the viability at 28.5 h, 10 µM came to 93.8%.
Regarding `Cn1c(=O)n(CC(=O)NCc2ccc(F)cc2)c2cccnc21` [CBK283908], the viability at 28.5 h, 10 µM stood at 86.6%.
Regarding `O=C(C[C@@H]1CCNC[C@@H]1Cc1cc(-c2ccc(F)cc2)on1)Nc1ccccc1` [CBK288801], the viability at 28.5 h, 10 µM was determined as 96.4%.
For the molecule `FC(F)(F)c1nc2ccccc2nc1Sc1ccccn1` [CBK093781], the viability at 28.5 h, 10 µM is 89%.
As for `Cc1nnsc1[S+]([O-])c1ccc(Br)cc1` (centres unmarked) [CBK012927], the viability at 28.5 h, 10 µM was 96.1%.
Turning to `O=C(NC(Cc1cccs1)c1nccs1)C1CSCN1` (centres unmarked) [CBK284805], the viability at 28.5 h, 10 µM was found to be 91.4%.
On the same count and under the same terms, as for `O=C(Nc1ccn(C23CC4CC(CC(C4)C2)C3)n1)c1ccco1` [CBK288023], the figure is 106%.
With `C[C@@H](c1ccccc1)n1c(=O)[nH]c2ncc(-c3ccco3)nc21` [CBK064168], the viability at 28.5 h, 10 µM is 112%.
In the case of `CCCSc1nnc(-c2ccccc2NC(=O)CC)c(O)n1` [CBK265081], the viability at 28.5 h, 10 µM worked out at 92.8%.
Consider `O=C(CSc1nc(Nc2ccccc2)nc(N2CCOCC2)n1)N1CCN(c2ccccc2)CC1` [CBK269078], for which the viability at 28.5 h, 10 µM stood at 98.5%.
Regarding `O=C(C1CCCN1)N1CC2(CCCC2)c2c(F)cccc21` (centres unmarked) [CBK304489], the viability at 28.5 h, 10 µM amounted to 90.1%.

Staying with this series, now noted: human, hela cells, % viability, bulk resorufin, single well.
As for `CS(=O)(=O)c1ccc(-c2ccc3c(c2)COC2(CCN(C(=O)CCCc4ccc(F)cc4)CC2)O3)cc1` [CBK160586], the viability at 28.5 h, 10 µM worked out at 92.5%.
